Reference: patent EP4342890A1, “PLATFORM AND SCAFFOLD FOR FAP TARGETING AGENTS” (Erasmus University Rotterdam Medical Center, priority 2022, dated 2024)

Tests used:
FAP = target: T1, FAP (Homo sapiens, UniProt Q12884); experiment: In vitro inhibition assay on human FAP (Z-GP-AMC substrate); type: biochemical; conditions: enzymatic assay; 20 µM Z-GP-AMC, 20 nM FAP; unit inferred
T1 sequence (Q12884 1-760): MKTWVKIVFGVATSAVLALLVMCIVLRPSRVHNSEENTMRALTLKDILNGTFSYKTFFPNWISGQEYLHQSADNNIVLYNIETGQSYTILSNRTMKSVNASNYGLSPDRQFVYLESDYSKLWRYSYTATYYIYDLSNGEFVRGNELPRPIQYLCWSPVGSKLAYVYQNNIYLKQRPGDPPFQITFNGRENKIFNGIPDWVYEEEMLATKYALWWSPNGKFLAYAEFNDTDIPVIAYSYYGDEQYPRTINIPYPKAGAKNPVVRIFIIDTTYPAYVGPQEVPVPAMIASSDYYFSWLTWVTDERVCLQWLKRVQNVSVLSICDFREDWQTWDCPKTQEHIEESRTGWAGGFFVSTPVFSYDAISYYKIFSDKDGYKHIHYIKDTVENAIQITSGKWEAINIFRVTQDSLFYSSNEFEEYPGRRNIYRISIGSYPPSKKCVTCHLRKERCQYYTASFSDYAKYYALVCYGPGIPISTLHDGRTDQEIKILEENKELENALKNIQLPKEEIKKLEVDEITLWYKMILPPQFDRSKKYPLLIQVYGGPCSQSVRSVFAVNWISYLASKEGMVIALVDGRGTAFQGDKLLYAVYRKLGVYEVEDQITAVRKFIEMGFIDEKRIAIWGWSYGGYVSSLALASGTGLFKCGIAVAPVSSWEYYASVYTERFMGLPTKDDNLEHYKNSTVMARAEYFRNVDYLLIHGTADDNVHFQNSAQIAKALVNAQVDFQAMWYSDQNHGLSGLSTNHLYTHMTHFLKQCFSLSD
Method: (§1) Enzymatic activity of human FAP (hFAP) and mouse FAP (mFAP) on the Z-GP-AMC substrate was measured at room temperature on a Hidex microplate reader by monitoring the fluorescence at an excitation wavelength of 360 nm and an emission wavelength of 465 nm. The reaction mixture contained 20 µM substrate, 20 nM FAP, assay buffer (50 mM Tris, 100 mM NaCl, 1 mM EDTA, pH 7.4) and tested compound (serial dilution from 10^-6 to 10^-12) in a total volume of 50 µL.

HT-1080.hFAP tumor = experiment: Biodistribution study in HT-1080.hFAP tumor bearing mice; type: in vivo; conditions: indium-111 labelled
Excerpt: Six-week-old male Balb/c nu/nu-specific and opportunistic pathogen-tree (SOPF) mice were housed in individually ventilated cages, with 4 mice per cage. Upon arrival, mice were acclimated for 1 week, with access to food and water ad libitum. Mice were subcutaneously inoculated on the right shoulder with U-87 or HT-1080.hFAP cells (1 × 10^6 cells). Xenografts were allowed to grow until they reached an appropriate size at the start of the studies. All animal experiments were approved by the Animal Welfare Committee of the Erasmus MC and were conducted in agreement with institutional guidelines (license number: AVD101002017867).
Biodistribution studies were performed to determine tumor and organ uptake of the radiolabeled eFAP compounds. Animals (n = 4 for each time point and each compound) were injected intravenously with an average of 100 kBq/0.5 nmol at t=0. At 3 selected time points (1, 4 and 24 h) p.i. blood was collected via cardiac puncture under isoflurane/O2 anesthesia, after which the mice were sacrificed. The tumor and organs of interest (prostate, pancreas, spleen, gall bladder, liver, stomach, small intestine, coecum, colon, adrenals, kidney, lung, heart, salivary glands, muscle, bone, brain were excised, washed in PBS and blotted dry. The blood, tumor, and relevant organs were weighed and measured in a γ-counter. To determine the total injected radioactivity per animal, calibration curve with indium-111 and lutetium-177 were determined. The percentage of injected dose per gram (% ID/g) was determined for each tissue sample and corrected for both the injected volume and % ID present at the injection site (the tail).
Comparison of the biodistribution in selected organs of [^111In]In-FAPI-46 and [^111In]In-eFAP-6 in HT-1080.hFAP tumor bearing mice are given in Figure 8.

PREP = target: T2, PREP (Homo sapiens, UniProt P48147); experiment: In vitro inhibition assay on PREP (Z-GP-AMC substrate); type: biochemical; conditions: enzymatic assay; 20 µM substrate, 2 nM PREP; unit inferred
T2 sequence (P48147 1-710): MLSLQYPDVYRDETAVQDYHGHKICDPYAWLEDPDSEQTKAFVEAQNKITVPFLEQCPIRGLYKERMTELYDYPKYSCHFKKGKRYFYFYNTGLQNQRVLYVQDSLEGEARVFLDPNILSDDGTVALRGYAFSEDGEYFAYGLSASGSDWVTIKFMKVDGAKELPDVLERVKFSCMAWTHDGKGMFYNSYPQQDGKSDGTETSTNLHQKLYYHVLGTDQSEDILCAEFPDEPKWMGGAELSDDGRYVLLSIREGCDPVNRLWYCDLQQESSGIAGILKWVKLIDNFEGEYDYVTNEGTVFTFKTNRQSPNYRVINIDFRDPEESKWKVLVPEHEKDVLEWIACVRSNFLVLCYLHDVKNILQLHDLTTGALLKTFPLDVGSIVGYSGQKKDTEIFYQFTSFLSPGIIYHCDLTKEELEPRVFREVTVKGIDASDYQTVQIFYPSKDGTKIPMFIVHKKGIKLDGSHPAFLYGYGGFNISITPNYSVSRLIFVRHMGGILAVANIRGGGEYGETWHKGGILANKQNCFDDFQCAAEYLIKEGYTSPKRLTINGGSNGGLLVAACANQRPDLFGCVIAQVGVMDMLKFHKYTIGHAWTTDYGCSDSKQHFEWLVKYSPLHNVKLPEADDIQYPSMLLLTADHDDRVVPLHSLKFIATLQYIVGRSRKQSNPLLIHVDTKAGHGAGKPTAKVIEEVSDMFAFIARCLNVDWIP
Method: as §1, with “of PREP” for “of human FAP (hFAP) and mouse FAP (mFAP)”, “substrate, 2” for “substrate, 20”, “nM PREP,” for “nM FAP,”, “from 10-6” for “from 10^-6”, “to 10-12)” for “to 10^-12)”

[1] = intravenous, HT-1080.hFAP tumor bearing mice

`N#C[C@@H]1CC(F)(F)CN1C(=O)CNC(=O)c1ccnc2c(OCCCNC(=O)CN3CCN(CC(=O)O)CCN(CC(=O)O)CCN(CC(=O)O)CC3)cccc12` [eFAP-6, (S)-2,2',2"-(10-(2-((3-((4-((2-(2-Cyano-4,4-difluoropyrrolidin-1-yl)-2-oxoethyl)carbamoyl)quinolin-8-yl)oxy)propyl)amino)-2-oxoethyl)-1,4,7,10-tetraazacyclododecane-1,4,7-triyl)triacetic acid] was tested, and the IC50 (FAP) was 1.6 ± 0.5 nM, the tumor targeting performance (HT-1080.hFAP tumor; compared with the clinical reference) was “comparable with that of FAPI-46” and the “background uptake in healthy organs” value (HT-1080.hFAP tumor; [1]) was “low background uptake in healthy organs”. For the same compound, the tumor uptake (HT-1080.hFAP tumor; [1]) was “high and rapid tumor uptake”, the “clearance from the body” value (HT-1080.hFAP tumor; intravenous, mice) was “rapid clearance from the body” and the IC50 (PREP) was 108 ± 42 nM.
